Data from patent US20070128217A1 (priority 2003, published 2007).

What was measured:
[1] = test system: antibodies in sera from SARS patients (sera 1a, 1b, 2, 6, 37, 62, London, SARS-yellow, SARS-green); format: binding, human; design: Binding of serum 6 to linear peptides of protein X1 of SARS-CoV Urbani / Binding of serum 37 to linear peptides of protein X1 of SARS-CoV Urbani / Binding of serum 6 to looped/cyclic peptide (PEPSCAN-ELISA) / Binding of serum 37 to looped/cyclic peptide (PEPSCAN-ELISA) / Binding of serum 37 to looped/cyclic peptides of protein X1 of SARS-CoV Urbani / Binding of serum 6 to linear peptides of protein X2 / Binding of serum 37 to linear peptides of protein X2 / Binding of serum 37 to looped/cyclic peptides of protein X2 of SARS-CoV Urbani / Binding of serum 6 to linear peptides of protein M of SARS-CoV Urbani / Binding of serum 37 to linear peptides of protein M of SARS-CoV Urbani / Binding of serum 6 to looped/cyclic peptides of protein M of SARS-CoV Urbani / Binding of serum 37 to looped/cyclic peptides of protein M of SARS-CoV Urbani / Binding of serum 6 to linear peptides of protein X3 of SARS-CoV Urbani / Binding of serum 37 to linear peptides of protein X3 of SARS-CoV Urbani / Binding of serum 37 to looped/cyclic peptides of protein X3 of SARS-CoV Urbani / Binding of serum 6 to linear peptides of protein X4 of SARS-CoV Urbani / Binding of serum 37 to linear peptides of protein X4 of SARS-CoV Urbani / Binding of serum 37 to looped/cyclic peptides of protein X4 of SARS-CoV Urbani / Binding of serum 6 to linear peptides of protein X5 of SARS-CoV Urbani / Binding of serum 37 to linear peptides of protein X5 of SARS-CoV Urbani / Binding of serum 37 to looped/cyclic peptides of protein X5 of SARS-CoV Urbani / Binding of serum 6 to linear peptides of protein N of SARS-CoV Urbani / Binding of serum 37 to linear peptides of protein N of SARS-CoV Urbani / Binding of serum 6 to linear peptide (PEPSCAN-ELISA) / Binding of serum 1a to looped/cyclic peptides of protein N of SARS-CoV Urbani / Binding of serum 1b to looped/cyclic peptides of protein N of SARS-CoV Urbani / Binding of serum 2 to looped/cyclic peptides of protein N of SARS-CoV Urbani / Binding of serum 6 to looped/cyclic peptides of protein N of SARS-CoV Urbani / Binding of serum 37 to looped/cyclic peptides of protein N of SARS-CoV Urbani / Binding of serum 62 to looped/cyclic peptides of protein N of SARS-CoV Urbani / Binding of serum London to looped/cyclic peptides of protein N of SARS-CoV Urbani / Binding of serum SARS-green to looped/cyclic peptides of protein N of SARS-CoV Urbani: unit not given here
[2] = test system: rabbit serum obtained by immunizing a rabbit with the SARS-CoV strain Frankfurt 1; format: binding; design: Binding of a rabbit serum to linear peptides / Binding of a rabbit serum to looped peptides / Rabbit serum linear peptides / Rabbit serum looped peptides / Binding of a rabbit serum to linear peptides of protein N of SARS-CoV Urbani (Rabbit serum linear peptides) / Binding of a rabbit serum to looped/cyclic peptides of protein N of SARS-CoV Urbani (Rabbit serum looped peptides): unit not given here
[3] = test system: control sera (pooled serum of ten healthy LUMC hospital workers; commercial negative donor pooled serum from the Dutch bloodbank); format: binding, human; design: Binding of Control serum LUMC to linear peptides / Binding of Control serum Blood-bank to linear peptides / Binding of Control serum LUMC to looped peptides / Binding of Control Serum Blood-Bank to Looped peptides / Binding of Control serum LUMC to linear peptides of the protein M of SARS-CoV Urbani / Binding of Control serum Blood-bank to linear peptides of the protein M of SARS-CoV Urbani / Binding of Control serum LUMC to looped peptides of the protein M of SARS-CoV Urbani / Binding of Control Serum Blood-Bank to Looped peptides of the protein M of SARS-CoV Urbani: unit not given here

Sequence: LKEPCPSGTYEGNSP
- Binding of serum 1a to linear peptides of protein X4 of SARS-CoV Urbani [1]: 0.7
- Binding of serum 1a to looped/cyclic peptides of protein X4 of SARS-CoV Urbani [1]: 0.6
- Binding of serum 1b to linear peptides of protein X4 of SARS-CoV Urbani [1]: 0.4
- Binding of serum 1b to looped/cyclic peptides of protein X4 of SARS-CoV Urbani [1]: 0.5
- Binding of serum 2 to linear peptides of protein X4 of SARS-CoV Urbani [1]: 0.4
- Binding of serum 2 to looped/cyclic peptides of protein X4 of SARS-CoV Urbani [1]: 0.5
- Binding of serum 6 to linear peptides of protein X4 of SARS-CoV Urbani [1]: 0.3
- Binding of serum 6 to looped/cyclic peptides of protein X4 of SARS-CoV Urbani [1]: 0.3
- Binding of serum 37 to linear peptides of protein X4 of SARS-CoV Urbani [1]: 0.6
- Binding of serum 37 to looped/cyclic peptides of protein X4 of SARS-CoV Urbani [1]: 0.5
- Binding of serum 62 to linear peptides of protein X4 of SARS-CoV Urbani [1]: 0.7
- Binding of serum 62 to looped/cyclic peptides of protein X4 of SARS-CoV Urbani [1]: 0.6
- Binding of serum London to linear peptides of protein X4 of SARS-CoV Urbani [1]: 0.9
- Binding of serum London to looped/cyclic peptides of protein X4 of SARS-CoV Urbani [1]: 0.3
- Binding of serum SARS-green to linear peptides of protein X4 of SARS-CoV Urbani [1]: 0.5
- Binding of serum SARS-green to looped/cyclic peptides of protein X4 of SARS-CoV Urbani [1]: 0.6
- Binding of serum SARS-yellow to linear peptides of protein X4 of SARS-CoV Urbani [1]: 0.2
- Binding of serum SARS-yellow to looped/cyclic peptides of protein X4 of SARS-CoV Urbani [1]: 0.2
- Rabbit serum linear peptides [2]: 0.4
- Rabbit serum looped peptides [2]: 0.0
- Binding of Control Serum Blood-Bank to Looped peptides [3]: 0.5
- Binding of Control serum Blood-bank to linear peptides [3]: 0.6
- Binding of Control serum LUMC to linear peptides [3]: 0.3
- Binding of Control serum LUMC to looped peptides [3]: 0.7

Sequence: IVTRPLMESELVIGA
- Binding of serum 1a to linear peptides of protein M of SARS-CoV Urbani [1]: 0.8
- Binding of serum 1b to linear peptides of protein M of SARS-CoV Urbani [1]: 0.7
- Binding of serum 2 to linear peptides of protein M of SARS-CoV Urbani [1]: 0.6
- Binding of serum 6 to linear peptides of protein M of SARS-CoV Urbani [1]: 0.4
- Binding of serum 37 to linear peptides of protein M of SARS-CoV Urbani [1]: 0.6
- Binding of serum 62 to linear peptides of protein M of SARS-CoV Urbani [1]: 0.6
- Binding of serum London to linear peptides of protein M of SARS-CoV Urbani [1]: 0.3
- Binding of serum SARS-green to linear peptides of protein M of SARS-CoV Urbani [1]: 0.6
- Binding of serum SARS-yellow to linear peptides of protein M of SARS-CoV Urbani [1]: 0.5
- Recognition of the peptide by sera of SARS-CoV infected individuals, and form (linear, looped/cyclic) in which it is recognized [1]: recognized in looped/cyclic form
- Rabbit serum linear peptides [2]: 0.1
- Rabbit serum looped peptides [2]: 0.4
- Binding of Control Serum Blood-Bank to Looped peptides of the protein M of SARS-CoV Urbani [3]: 0.9
- Binding of Control serum Blood-bank to linear peptides of the protein M of SARS-CoV Urbani [3]: 0.7
- Binding of Control serum LUMC to linear peptides of the protein M of SARS-CoV Urbani [3]: 0.8
- Binding of Control serum LUMC to looped peptides of the protein M of SARS-CoV Urbani [3]: 1.0

Sequence: SMWSFNPETNILLNV
- Binding of serum 1a to linear peptides of protein M of SARS-CoV Urbani [1]: 0.8
- Binding of serum 1a to looped/cyclic peptides of protein M of SARS-CoV Urbani [1]: 0.7
- Binding of serum 1b to linear peptides of protein M of SARS-CoV Urbani [1]: 0.7
- Binding of serum 1b to looped/cyclic peptides of protein M of SARS-CoV Urbani [1]: 0.1
- Binding of serum 2 to linear peptides of protein M of SARS-CoV Urbani [1]: 0.5
- Binding of serum 2 to looped/cyclic peptides of protein M of SARS-CoV Urbani [1]: 0.8
- Binding of serum 6 to linear peptides of protein M of SARS-CoV Urbani [1]: 0.5
- Binding of serum 6 to looped/cyclic peptides of protein M of SARS-CoV Urbani [1]: 0.6
- Binding of serum 37 to linear peptides of protein M of SARS-CoV Urbani [1]: 0.5
- Binding of serum 37 to looped/cyclic peptides of protein M of SARS-CoV Urbani [1]: 0.8
- Binding of serum 62 to linear peptides of protein M of SARS-CoV Urbani [1]: 0.5
- Binding of serum 62 to looped/cyclic peptides of protein M of SARS-CoV Urbani [1]: 0.7
- Binding of serum London to linear peptides of protein M of SARS-CoV Urbani [1]: 0.4
- Binding of serum London to looped/cyclic peptides of protein M of SARS-CoV Urbani [1]: 0.2
- Binding of serum SARS-green to linear peptides of protein M of SARS-CoV Urbani [1]: 0.5
- Binding of serum SARS-green to looped/cyclic peptides of protein M of SARS-CoV Urbani [1]: 0.2
- Binding of serum SARS-yellow to linear peptides of protein M of SARS-CoV Urbani [1]: 0.2
- Binding of serum SARS-yellow to looped/cyclic peptides of protein M of SARS-CoV Urbani [1]: 0.7
- Rabbit serum linear peptides [2]: 0.2
- Rabbit serum looped peptides [2]: 0.4
- Binding of Control Serum Blood-Bank to Looped peptides of the protein M of SARS-CoV Urbani [3]: 0.8
- Binding of Control serum Blood-bank to linear peptides of the protein M of SARS-CoV Urbani [3]: 0.8
- Binding of Control serum LUMC to linear peptides of the protein M of SARS-CoV Urbani [3]: 0.8
- Binding of Control serum LUMC to looped peptides of the protein M of SARS-CoV Urbani [3]: 0.7
